Test [1] concerns the target Alkaline phosphatase, tissue-nonspecific isozyme (Homo sapiens) (UniProt P05186). Put plainly: Concentration required for 50% inhibition of human leukocyte alkaline phosphatase in the presence of 10 mM p-nitrophenyl phosphate as substrate.
For test [2] the target is unchanged. The description is as above. This is another data set of the same source.

Sequence of Alkaline phosphatase, tissue-nonspecific isozyme (Homo sapiens) (P05186 whole entry, looked up): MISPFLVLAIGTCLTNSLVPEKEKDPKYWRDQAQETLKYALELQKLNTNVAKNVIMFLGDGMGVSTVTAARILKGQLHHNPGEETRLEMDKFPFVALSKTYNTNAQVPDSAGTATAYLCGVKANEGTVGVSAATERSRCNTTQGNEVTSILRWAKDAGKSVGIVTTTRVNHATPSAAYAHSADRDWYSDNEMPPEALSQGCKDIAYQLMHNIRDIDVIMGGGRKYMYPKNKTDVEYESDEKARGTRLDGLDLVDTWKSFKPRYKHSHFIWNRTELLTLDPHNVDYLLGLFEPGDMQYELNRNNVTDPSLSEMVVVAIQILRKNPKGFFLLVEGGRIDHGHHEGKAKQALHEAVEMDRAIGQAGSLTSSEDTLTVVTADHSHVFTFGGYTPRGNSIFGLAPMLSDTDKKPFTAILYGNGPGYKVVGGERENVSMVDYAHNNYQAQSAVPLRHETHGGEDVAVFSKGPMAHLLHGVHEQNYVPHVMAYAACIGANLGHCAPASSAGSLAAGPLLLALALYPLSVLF

As a reminder, the IC50 is the midpoint of a concentration-inhibition curve. `CCCOc1ccccc1-c1nc2nn[nH]c2c(=O)[nH]1` [5-(2-propoxyphenyl)-2H,3H,7H-[1,2,3]triazolo[4,5-d]pyrimidin-7-one]: the IC50 in test [1] came to 1.75 mM.

Regarding `O=C(O)c1ccc2nc3ccc(O)cc3c(=O)n2c1`, the IC50 in test [1] is 0.34 mM.

`O=C(O)c1cc(=O)c2c(OCC(O)COc3cccc4oc(C(=O)O)cc(=O)c34)cccc2o1` [Crolom]: the IC50 in test [2] came to 9.68 mM.

For the compound `CCCCc1cc2c(O)cc(C(=O)O)nc2c2c(O)cc(C(=O)O)nc12`, the IC50 in test [2] was 0.97 mM.

For the origin of these results see BindingDB's records for doi:10.1021/jm00348a025 (1982).
